Results reported in patent publication US12692264B2, “Pyrimidine or pyridine derivative, preparation method therefor, and application thereof in pharmacy” (ABBISKO THERAPEUTICS CO., LTD., priority 2021, dated 2026).

Key:
Type in all cases: cell-based
A431 (EGFR-WT) = experiment: Cell proliferation study (CellTiter-Glo, 72 hrs), A431; settings: Homo sapiens, A-431, A431 cells, CTG, * = average of multiple measurements
How it was run: (§1)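 Cells were seeded overnight, then exposed for 72 hrs at 37 °C, 5% CO2 to 9 concentrations in 3.16-fold steps, 0.1% DMSO final, triplicate wells. Viability was read by CellTiter-Glo luminescence, with a T0 plate read at dosing. IC50 came from nonlinear sigmoidal dose-response fits.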

[1] = biological target: Ba/F3 EGFR-D770-N771ins_SVD (Homo sapiens, UniProt P00533, DUP768-770, cells depend on it); experiment: Cell proliferation study (CellTiter-Glo, 72 hrs), Ba/F3 EGFR-D770-N771ins_SVD; settings: CTG, * = average of multiple measurements, read-out: Ba/F3 EGFR-D770-N771ins_SVD IC50
How it was run: as §1

[2] = biological target: Ba/F3 EGFR-V769_D770insASV (Homo sapiens, UniProt P00533, DUP767-769, cells depend on it); experiment: Cell proliferation study (CellTiter-Glo, 72 hrs), Ba/F3 EGFR-V769_D770insASV; settings: CTG, * = average of multiple measurements, read-out: Ba/F3 EGFR-V769_D770insASV IC50
How it was run: as §1

Ba/F3 EGFR-D770-N771ins_SVD, sequence (P00533 with tags, fused parts or gaps DUP768-770): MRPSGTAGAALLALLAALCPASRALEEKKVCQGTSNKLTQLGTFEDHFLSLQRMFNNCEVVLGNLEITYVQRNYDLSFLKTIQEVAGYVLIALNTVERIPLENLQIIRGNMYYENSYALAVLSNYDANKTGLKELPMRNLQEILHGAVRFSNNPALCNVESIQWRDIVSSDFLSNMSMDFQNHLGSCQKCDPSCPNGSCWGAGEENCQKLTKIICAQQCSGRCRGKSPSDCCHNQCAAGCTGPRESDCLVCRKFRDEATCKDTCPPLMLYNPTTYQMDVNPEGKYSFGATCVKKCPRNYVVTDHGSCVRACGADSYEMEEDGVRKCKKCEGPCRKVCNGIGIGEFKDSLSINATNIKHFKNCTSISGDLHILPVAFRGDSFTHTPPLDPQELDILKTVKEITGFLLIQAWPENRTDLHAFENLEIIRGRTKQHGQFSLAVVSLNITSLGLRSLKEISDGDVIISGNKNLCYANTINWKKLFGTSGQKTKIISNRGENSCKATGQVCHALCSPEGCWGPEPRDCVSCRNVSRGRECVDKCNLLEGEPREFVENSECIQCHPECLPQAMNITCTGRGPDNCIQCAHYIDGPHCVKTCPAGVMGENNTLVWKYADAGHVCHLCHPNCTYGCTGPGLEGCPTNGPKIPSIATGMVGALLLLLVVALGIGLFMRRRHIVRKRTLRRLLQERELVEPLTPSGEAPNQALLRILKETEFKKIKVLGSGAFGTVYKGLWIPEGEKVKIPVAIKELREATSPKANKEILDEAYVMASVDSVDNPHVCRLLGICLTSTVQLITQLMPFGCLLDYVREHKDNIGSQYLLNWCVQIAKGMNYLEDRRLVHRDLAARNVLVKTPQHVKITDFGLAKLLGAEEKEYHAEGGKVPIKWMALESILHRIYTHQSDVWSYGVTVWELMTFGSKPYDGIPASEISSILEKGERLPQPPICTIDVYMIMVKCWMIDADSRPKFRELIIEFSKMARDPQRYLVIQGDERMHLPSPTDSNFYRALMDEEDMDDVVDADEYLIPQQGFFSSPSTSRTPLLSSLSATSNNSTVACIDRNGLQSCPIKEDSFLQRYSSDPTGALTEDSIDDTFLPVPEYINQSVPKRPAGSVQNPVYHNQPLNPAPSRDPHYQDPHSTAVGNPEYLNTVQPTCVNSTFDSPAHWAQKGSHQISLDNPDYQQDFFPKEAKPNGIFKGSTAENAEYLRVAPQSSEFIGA
Ba/F3 EGFR-V769_D770insASV, sequence (P00533 with tags, fused parts or gaps DUP767-769): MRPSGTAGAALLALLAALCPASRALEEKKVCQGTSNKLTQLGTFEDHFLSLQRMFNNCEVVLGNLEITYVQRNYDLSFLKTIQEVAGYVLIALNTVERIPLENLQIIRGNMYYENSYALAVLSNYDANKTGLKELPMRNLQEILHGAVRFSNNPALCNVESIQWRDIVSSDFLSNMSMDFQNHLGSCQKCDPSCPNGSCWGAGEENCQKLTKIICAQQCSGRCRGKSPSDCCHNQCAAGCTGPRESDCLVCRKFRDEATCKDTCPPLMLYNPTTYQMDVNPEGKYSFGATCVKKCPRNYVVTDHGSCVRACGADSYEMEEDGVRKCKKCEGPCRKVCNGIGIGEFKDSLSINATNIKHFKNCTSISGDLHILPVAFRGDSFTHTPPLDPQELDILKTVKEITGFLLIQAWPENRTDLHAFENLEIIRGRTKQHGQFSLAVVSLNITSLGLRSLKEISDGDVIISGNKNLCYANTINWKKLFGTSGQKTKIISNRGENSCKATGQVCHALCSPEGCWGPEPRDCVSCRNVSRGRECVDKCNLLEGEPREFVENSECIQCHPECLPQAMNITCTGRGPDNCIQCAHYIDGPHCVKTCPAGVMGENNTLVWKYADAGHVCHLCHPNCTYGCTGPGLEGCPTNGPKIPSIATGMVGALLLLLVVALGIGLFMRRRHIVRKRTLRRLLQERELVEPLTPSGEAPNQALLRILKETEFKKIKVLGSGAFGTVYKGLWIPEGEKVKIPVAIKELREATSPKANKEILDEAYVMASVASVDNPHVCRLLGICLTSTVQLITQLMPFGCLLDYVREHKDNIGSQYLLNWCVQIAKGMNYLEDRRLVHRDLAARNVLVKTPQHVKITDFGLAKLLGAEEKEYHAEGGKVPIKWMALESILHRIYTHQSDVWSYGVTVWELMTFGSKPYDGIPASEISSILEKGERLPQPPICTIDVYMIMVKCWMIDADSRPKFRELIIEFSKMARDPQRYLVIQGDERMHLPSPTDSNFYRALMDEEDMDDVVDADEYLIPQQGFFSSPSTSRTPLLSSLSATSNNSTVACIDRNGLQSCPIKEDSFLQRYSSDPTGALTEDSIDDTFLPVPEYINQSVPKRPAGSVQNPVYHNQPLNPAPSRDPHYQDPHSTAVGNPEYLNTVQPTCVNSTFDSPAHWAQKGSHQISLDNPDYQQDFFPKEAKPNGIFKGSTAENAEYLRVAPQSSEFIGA

| SMILES | IC50 (A431 (EGFR-WT)) [nM] | GI50 [1] [nM] | GI50 [2] [nM] |
| --- | --- | --- | --- |
| C=CC(=O)Nc1cc(Nc2ncc(C(=O)OC(C)C)c(N3CC(C)(C)c4ccccc43)n2)c(OC)cc1N1C[C@@H](F)C[C@@H]1CN(C)C [Example 87, isopropyl 2-((5-acrylamido-4-((2R,4S)-2-((di-methylamino)methyl)-4-fluoro-pyrrolidin-1-yl)-2-methoxy-phenyl)amino)-4-(3,3-dimethyl-indolin-1-yl)pyrimidine-5-carboxylate] | 58.1 | 25.8 | 12.5 |
| C=CC(=O)Nc1cc(Nc2ncc(C(=O)OC(C)C)c(N3CC(C)(C)c4nc(C#CC)ccc43)n2)c(OC)cc1N1CC[C@@H](N(C)C)C1 [Example 74, isopropyl (R)-2-((5-acrylamido-4-(3-(dimethyl-amino)pyrrolidin-1-yl)-2-methoxy-phenyl)amino)-4-(3,3-dimethyl-5-(prop-1-yn-1-yl)-2,3-dihydro-1H-pyrrolo[3,2-b]pyridin-1-yl)pyrimidine-5-carboxylate] | 99.3 | 15.5 | 43.6 |
| C=CC(=O)Nc1cc(Nc2ncc(C(=O)OC(C)C)c(N3CC(C)(C)c4nc(C)ccc43)n2)c(OC)nc1N1CCC[C@@H]1CN(C)C [Example 31, isopropyl (R)-2-((5-acrylamido-6-(2-((dimethyl-amino)methyl)pyrrolidin-1-yl)-2-meth-oxypyridin-3-yl)amino)-4-(3,3,5-tri-methyl-2,3-dihydro-1H-pyrrolo[3,2-b]pyridin-1-yl)pyrimidine-5-carboxylate] | 183 | 11.8 | 13.9 |
| C=CC(=O)Nc1cc(Nc2ncc(C(=O)OC(C)C)c(N3CC(C)(C)c4nc(F)ccc43)n2)c(OC)cc1N(C)CCN(C)C [Example 11, isopropyl 2-((5-acrylamido-4-((2-(dimethylami-no)ethyl)(methyl)amino)-2-methoxy-phenyl)amino)-4-(5-fluoro-3,3-dimethyl-2,3-dihydro-1H-pyrrolo[3,2-b]pyridin-1-yl)pyrimidine-5-carboxylate] | 828 | 30.2 | 37.3 |
| C=CC(=O)Nc1cc(Nc2ncc(C(=O)OC(C)C)c(N3CC(C)(C)c4nc(C)ccc43)n2)c(OC)cc1N1CC(N(C)C)C1 [Example 40, isopropyl 2-((5-acrylamido-4-(3-(dimethylami-no)azetidin-1-yl)-2-methoxyphenyl)ami-no)-4-(3,3,5-trimethyl-2,3-dihydro-1H-pyrrolo[3,2-b]pyridin-1-yl)pyrimidine-5-carboxylate] | 295 | 33.9 | 44.2 |
| C=CC(=O)Nc1cc(Nc2ncc(C(=O)OC(C)C)c(N3CC4(CC4)c4nc(C)ccc43)n2)c(OC)cc1N(C)C[C@@H]1CCCN1C [Example 44, isopropyl (S)-2-((5-acrylamido-2-methoxy-4-(methyl((1-methylpyrrolidin-2-yl)methyl)amino)phenyl)amino)-4-(5′-methylspiro(cyclopropane-1,3′-pyrrolo[3,2-b]pyridin)-1′(2′H)-yl)pyrimidine-5-carboxylate] | 235 | 30.4 | 76.5 |
| [2H]C1([2H])N(c2nc(Nc3cc(NC(=O)C=C)c(N4CCC[C@@H]4CN(C)C)cc3OC)ncc2C(=O)OC(C)C)c2ccc(C)nc2C1(C)C [Example 48, isopropyl (R)-2-((5-acrylamido-4-(2-((dimethyl-amino)methyl)pyrrolidin-1-yl)-2-meth-oxyphenyl)amino)-4-(3,3,5-trimethyl-2,3-dihydro-1H-pyrrolo[3,2-b]pyridin-1-yl-2,2-d2)pyrimidine-5-carboxylate] | 4.4 | 11.1 | 37 |
| C#Cc1ccc2c(n1)C(C)(C)CN2c1nc(Nc2cc(NC(=O)C=C)c(N(C)CCN(C)C)cc2OC)ncc1C(=O)OC(C)C [Example 9, isopropyl 2-((5-acrylamido-4-((2-(dimethylamino)ethyl)(methyl)amino)-2-methoxyphenyl)amino)-4-(5-ethynyl-3,3-dimethyl-2,3-dihydro-1H-pyrrolo[3,2-b]pyridin-1-yl)pyrimidine-5-carboxylate] | 23.3 | 17.8 | 31.8 |
